The results in this text go back to patent publication US20090042963A1 (priority 2005, published 2009).

This assay deals with Pyricularia oryzae. The format is cell-based. To be noted: single active compound, Conc. 1 ppm; microtiter plate, malt-based medium, 18° C., measured at 405 nm on day 7 after inoculation.

On to `Fc1ccc(C2(Cn3cncn3)OC2c2ccccc2Cl)cc1` (centres unmarked) [Epoxiconazole, epoxiconazole], for which the “Observed effect (%)” value stood at 0%. Regarding `CC(C)(C)C(O)(CCc1ccc(Cl)cc1)Cn1cncn1` (centres unmarked) [Tebuconazole, tebuconazole], the “Observed effect (%)” value is recorded as 2%.
